SMILES strings stand for the structures.

One test concerns M. tuberculosis H37Rv-GFP. In words: microbe, parasite or virus in culture. To be noted: Mycobacterium tuberculosis, H37RV, Macrophage; confirmation, 0.2 uM, intracellular; read-out: QIM Confirm % Inhibition 0.2 uM. In kind it is cell-based, Mycobacterium tuberculosis.
One may read the inhibition as the relative decrease from the control value, in per cent. `O=C(N/N=C/c1cc(Br)c(Br)o1)c1ccncc1` [IPK 000 009 41]: the inhibition at 0.2 µM was determined as 19.6%.

Turning to `O=C(Oc1cccc2ncccc12)c1ccccc1F` [IPK 000 018 65], the inhibition at 0.2 µM is 28%.

Turning to `O=C(/C=C/c1ccc(Cl)cc1Cl)c1ccc(Cl)cc1` [IPK 000 015 36], the inhibition at 0.2 µM was found to be 15.8%.

As for `CN1CCN(c2nc(Nc3ccc(OC(F)(F)F)cc3)nc(OCC(F)(F)F)n2)CC1` [IPK 000 008 12], the inhibition at 0.2 µM was determined as 2.7%.

In the case of `Clc1ccc(Nc2nc3nonc3nc2Nc2ccc(Cl)cc2)cc1` [IPK 000 003 90], the inhibition at 0.2 µM is 2.2%.

`O=C(NCc1ccc2c(c1)OCO2)c1cc([N+](=O)[O-])cc([N+](=O)[O-])c1` [IPK 000 027 85]: the inhibition at 0.2 µM stood at 83%.

The same test, now with this note: Mycobacterium tuberculosis, H37RV, Macrophage; confirmation, 2 uM, intracellular; read-out: QIM Confirm % Inhibition 2 uM.
As for `O=C(N/N=C/c1cc(Br)c(Br)o1)c1ccncc1` [IPK 000 009 41], the inhibition at 2 µM was 92.8%.

In the case of `O=C(Oc1cccc2ncccc12)c1ccccc1F` [IPK 000 018 65], the inhibition at 2 µM is 14%.

`O=C(/C=C/c1ccc(Cl)cc1Cl)c1ccc(Cl)cc1` [IPK 000 015 36]: the inhibition at 2 µM is -4.8%.

As to `CN1CCN(c2nc(Nc3ccc(OC(F)(F)F)cc3)nc(OCC(F)(F)F)n2)CC1` [IPK 000 008 12], the inhibition at 2 µM was 18.9%.

Consider `Clc1ccc(Nc2nc3nonc3nc2Nc2ccc(Cl)cc2)cc1` [IPK 000 003 90], for which the inhibition at 2 µM was 43.2%.

In the case of `O=C(NCc1ccc2c(c1)OCO2)c1cc([N+](=O)[O-])cc([N+](=O)[O-])c1` [IPK 000 027 85], the inhibition at 2 µM is 99.4%.

Still in this test, the particulars now being: Mycobacterium tuberculosis, H37RV, Macrophage; confirmation, 20 uM; read-out: QIM Confirm % Inhibition 20 uM.
Regarding `O=C(N/N=C/c1cc(Br)c(Br)o1)c1ccncc1` [IPK 000 009 41], the inhibition at 20 µM worked out at 99.6%.

With `O=C(Oc1cccc2ncccc12)c1ccccc1F` [IPK 000 018 65], the inhibition at 20 µM worked out at 39.2%.

As for `O=C(/C=C/c1ccc(Cl)cc1Cl)c1ccc(Cl)cc1` [IPK 000 015 36], the inhibition at 20 µM worked out at 36.1%.

Turning to `CN1CCN(c2nc(Nc3ccc(OC(F)(F)F)cc3)nc(OCC(F)(F)F)n2)CC1` [IPK 000 008 12], the inhibition at 20 µM amounted to 78.4%.

Turning to `Clc1ccc(Nc2nc3nonc3nc2Nc2ccc(Cl)cc2)cc1` [IPK 000 003 90], the inhibition at 20 µM was found to be 67.9%.

Turning to `O=C(NCc1ccc2c(c1)OCO2)c1cc([N+](=O)[O-])cc([N+](=O)[O-])c1` [IPK 000 027 85], the inhibition at 20 µM was determined as 40.1%.

Still in this test, the particulars now being: Mycobacterium tuberculosis, H37RV, Macrophage; primary screen, 20 μM; read-out: Primary QIM % Inhibition.
Take `O=C(N/N=C/c1cc(Br)c(Br)o1)c1ccncc1` [IPK 000 009 41]: the inhibition at 20 µM was found to be 92.9%.

`O=C(Oc1cccc2ncccc12)c1ccccc1F` [IPK 000 018 65]: the inhibition at 20 µM stood at 23.1%.

With `O=C(/C=C/c1ccc(Cl)cc1Cl)c1ccc(Cl)cc1` [IPK 000 015 36], the inhibition at 20 µM was 38.1%.

As for `CN1CCN(c2nc(Nc3ccc(OC(F)(F)F)cc3)nc(OCC(F)(F)F)n2)CC1` [IPK 000 008 12], the inhibition at 20 µM came to 64.1%.

As to `Clc1ccc(Nc2nc3nonc3nc2Nc2ccc(Cl)cc2)cc1` [IPK 000 003 90], the inhibition at 20 µM stood at 15.7%.

Take `O=C(NCc1ccc2c(c1)OCO2)c1cc([N+](=O)[O-])cc([N+](=O)[O-])c1` [IPK 000 027 85]: the inhibition at 20 µM stood at 100%.

Another test concerns Raw264.7 cells. Kind of test: Cell number (CellNb) from image analysis of the phenotypic cell-based assay. As to conditions: confirmation, 0.2 uM.
Take `O=C(N/N=C/c1cc(Br)c(Br)o1)c1ccncc1` [IPK 000 009 41]: the “QIM Confirm CellNb 0.2 uM” value is 257.8.

For the compound `O=C(Oc1cccc2ncccc12)c1ccccc1F` [IPK 000 018 65], the “QIM Confirm CellNb 0.2 uM” value is 256.6.

For the compound `O=C(/C=C/c1ccc(Cl)cc1Cl)c1ccc(Cl)cc1` [IPK 000 015 36], the “QIM Confirm CellNb 0.2 uM” value is reported as 331.0.

Turning to `CN1CCN(c2nc(Nc3ccc(OC(F)(F)F)cc3)nc(OCC(F)(F)F)n2)CC1` [IPK 000 008 12], the “QIM Confirm CellNb 0.2 uM” value turned out to be 292.9.

In the case of `Clc1ccc(Nc2nc3nonc3nc2Nc2ccc(Cl)cc2)cc1` [IPK 000 003 90], the “QIM Confirm CellNb 0.2 uM” value was 142.3.

Regarding `O=C(NCc1ccc2c(c1)OCO2)c1cc([N+](=O)[O-])cc([N+](=O)[O-])c1` [IPK 000 027 85], the “QIM Confirm CellNb 0.2 uM” value is 429.3.

Still in this test, the particulars now being: confirmation, 2 uM.
Turning to `O=C(N/N=C/c1cc(Br)c(Br)o1)c1ccncc1` [IPK 000 009 41], the “QIM Confirm CellNb 2 uM” value was 488.3.

Regarding `O=C(Oc1cccc2ncccc12)c1ccccc1F` [IPK 000 018 65], the “QIM Confirm CellNb 2 uM” value amounted to 218.3.

As for `O=C(/C=C/c1ccc(Cl)cc1Cl)c1ccc(Cl)cc1` [IPK 000 015 36], the “QIM Confirm CellNb 2 uM” value is 286.0.

Turning to `CN1CCN(c2nc(Nc3ccc(OC(F)(F)F)cc3)nc(OCC(F)(F)F)n2)CC1` [IPK 000 008 12], the “QIM Confirm CellNb 2 uM” value is given as 225.6.

In the case of `Clc1ccc(Nc2nc3nonc3nc2Nc2ccc(Cl)cc2)cc1` [IPK 000 003 90], the “QIM Confirm CellNb 2 uM” value worked out at 75.6.

`O=C(NCc1ccc2c(c1)OCO2)c1cc([N+](=O)[O-])cc([N+](=O)[O-])c1` [IPK 000 027 85]: the “QIM Confirm CellNb 2 uM” value turned out to be 487.4.

Still in this test, the particulars now being: confirmation, 20 uM.
`O=C(N/N=C/c1cc(Br)c(Br)o1)c1ccncc1` [IPK 000 009 41]: the “QIM Confirm CellNb 20 uM” value stood at 446.5.

Consider `O=C(Oc1cccc2ncccc12)c1ccccc1F` [IPK 000 018 65], for which the “QIM Confirm CellNb 20 uM” value worked out at 256.4.

With `O=C(/C=C/c1ccc(Cl)cc1Cl)c1ccc(Cl)cc1` [IPK 000 015 36], the “QIM Confirm CellNb 20 uM” value was 168.0.

On to `CN1CCN(c2nc(Nc3ccc(OC(F)(F)F)cc3)nc(OCC(F)(F)F)n2)CC1` [IPK 000 008 12], for which the “QIM Confirm CellNb 20 uM” value worked out at 248.0.

As for `Clc1ccc(Nc2nc3nonc3nc2Nc2ccc(Cl)cc2)cc1` [IPK 000 003 90], the “QIM Confirm CellNb 20 uM” value worked out at 133.4.

As for `O=C(NCc1ccc2c(c1)OCO2)c1cc([N+](=O)[O-])cc([N+](=O)[O-])c1` [IPK 000 027 85], the “QIM Confirm CellNb 20 uM” value came to 224.8.

Still in this test, the particulars now being: primary screen, 20 μM.
Turning to `O=C(N/N=C/c1cc(Br)c(Br)o1)c1ccncc1` [IPK 000 009 41], the “Primary QIM CellNb” value turned out to be 345.8.

With `O=C(Oc1cccc2ncccc12)c1ccccc1F` [IPK 000 018 65], the “Primary QIM CellNb” value came out at 218.0.

As for `O=C(/C=C/c1ccc(Cl)cc1Cl)c1ccc(Cl)cc1` [IPK 000 015 36], the “Primary QIM CellNb” value is 146.5.

For the compound `CN1CCN(c2nc(Nc3ccc(OC(F)(F)F)cc3)nc(OCC(F)(F)F)n2)CC1` [IPK 000 008 12], the “Primary QIM CellNb” value was determined as 396.3.

Consider `Clc1ccc(Nc2nc3nonc3nc2Nc2ccc(Cl)cc2)cc1` [IPK 000 003 90], for which the “Primary QIM CellNb” value was determined as 78.0.

In the case of `O=C(NCc1ccc2c(c1)OCO2)c1cc([N+](=O)[O-])cc([N+](=O)[O-])c1` [IPK 000 027 85], the “Primary QIM CellNb” value amounted to 315.0.

Another test deals with M. tuberculosis H37Rv-GFP. Kind of test: microbe, parasite or virus in culture. The test is classed as cell-based. As to conditions: Mycobacterium tuberculosis, read-out: QUM Confirm % Inhibition 0.2 uM.
On to `O=C(N/N=C/c1cc(Br)c(Br)o1)c1ccncc1` [IPK 000 009 41], for which the inhibition at 0.2 µM came to 28.3%.

Turning to `O=C(Oc1cccc2ncccc12)c1ccccc1F` [IPK 000 018 65], the inhibition at 0.2 µM was 36.4%.

As to `O=C(/C=C/c1ccc(Cl)cc1Cl)c1ccc(Cl)cc1` [IPK 000 015 36], the inhibition at 0.2 µM was 41.9%.

For the compound `CN1CCN(c2nc(Nc3ccc(OC(F)(F)F)cc3)nc(OCC(F)(F)F)n2)CC1` [IPK 000 008 12], the inhibition at 0.2 µM worked out at 36.5%.

Take `Clc1ccc(Nc2nc3nonc3nc2Nc2ccc(Cl)cc2)cc1` [IPK 000 003 90]: the inhibition at 0.2 µM stood at 44%.

For `O=C(NCc1ccc2c(c1)OCO2)c1cc([N+](=O)[O-])cc([N+](=O)[O-])c1` [IPK 000 027 85], the inhibition at 0.2 µM was found to be 97.2%.

The same test, now with this note: Mycobacterium tuberculosis, read-out: QUM Confirm % Inhibition 2 uM.
In the case of `O=C(N/N=C/c1cc(Br)c(Br)o1)c1ccncc1` [IPK 000 009 41], the inhibition at 2 µM came out at 59.6%.

On to `O=C(Oc1cccc2ncccc12)c1ccccc1F` [IPK 000 018 65], for which the inhibition at 2 µM stood at 54%.

Turning to `O=C(/C=C/c1ccc(Cl)cc1Cl)c1ccc(Cl)cc1` [IPK 000 015 36], the inhibition at 2 µM is 59.4%.

Regarding `CN1CCN(c2nc(Nc3ccc(OC(F)(F)F)cc3)nc(OCC(F)(F)F)n2)CC1` [IPK 000 008 12], the inhibition at 2 µM came to 39.7%.

Consider `Clc1ccc(Nc2nc3nonc3nc2Nc2ccc(Cl)cc2)cc1` [IPK 000 003 90], for which the inhibition at 2 µM came out at 68.8%.

Consider `O=C(NCc1ccc2c(c1)OCO2)c1cc([N+](=O)[O-])cc([N+](=O)[O-])c1` [IPK 000 027 85], for which the inhibition at 2 µM was found to be 97.9%.

Still in this test, the particulars now being: Mycobacterium tuberculosis, read-out: QUM Confirm % Inhibition 20 uM.
For `O=C(N/N=C/c1cc(Br)c(Br)o1)c1ccncc1` [IPK 000 009 41], the inhibition at 20 µM was 99.4%.

As to `O=C(Oc1cccc2ncccc12)c1ccccc1F` [IPK 000 018 65], the inhibition at 20 µM amounted to 99%.

For the compound `O=C(/C=C/c1ccc(Cl)cc1Cl)c1ccc(Cl)cc1` [IPK 000 015 36], the inhibition at 20 µM was determined as 79.5%.

For the compound `CN1CCN(c2nc(Nc3ccc(OC(F)(F)F)cc3)nc(OCC(F)(F)F)n2)CC1` [IPK 000 008 12], the inhibition at 20 µM is 48%.

As to `Clc1ccc(Nc2nc3nonc3nc2Nc2ccc(Cl)cc2)cc1` [IPK 000 003 90], the inhibition at 20 µM is 72.7%.

Regarding `O=C(NCc1ccc2c(c1)OCO2)c1cc([N+](=O)[O-])cc([N+](=O)[O-])c1` [IPK 000 027 85], the inhibition at 20 µM was found to be 71.7%.
